PubChem BioAssay (NCI)
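Cultured in 96-well plates, cells were exposed to test compound for 48 hours across five concentrations. At the TGI there is no net growth.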

How the values were obtained:
Experiment in all cases: growth of human tumour cells (NCI), 48 h
SK-MEL-2 melanoma = system: SK-MEL-2 melanoma
OVCAR-4 ovarian = system: OVCAR-4 ovarian
SNB-78 CNS = system: SNB-78 CNS
EKVX NSCLC = system: EKVX NSCLC
HCC-2998 colon = system: HCC-2998 colon
SF-268 CNS = system: SF-268 CNS
LXFL 529 NSCLC = system: LXFL 529 NSCLC
RXF 393 renal = system: RXF 393 renal
MOLT-4 leukemia = system: MOLT-4 leukemia
TK-10 renal = system: TK-10 renal
SN12C renal = system: SN12C renal
CCRF-CEM leukemia = system: CCRF-CEM leukemia
KM12 colon = system: KM12 colon
ACHN renal = system: ACHN renal
SK-MEL-5 melanoma = system: SK-MEL-5 melanoma
HL-60(TB) leukemia = system: HL-60(TB) leukemia
M14 melanoma = system: M14 melanoma
NCI-H23 lung = system: NCI-H23 lung
LOX IMVI melanoma = system: LOX IMVI melanoma
OVCAR-5 ovarian = system: OVCAR-5 ovarian
OVCAR-8 ovarian = system: OVCAR-8 ovarian
CAKI-1 renal = system: CAKI-1 renal
SF-539 CNS = system: SF-539 CNS
NCI-H460 lung = system: NCI-H460 lung
DMS 273 small cell lung = system: DMS 273 small cell lung
A549 NSCLC = system: A549 NSCLC
MALME-3M melanoma = system: MALME-3M melanoma
SW-620 colon = system: SW-620 colon
SK-MEL-28 melanoma = system: SK-MEL-28 melanoma
HT29 colon = system: HT29 colon
IGROV1 ovarian = system: IGROV1 ovarian
OVCAR-3 ovarian = system: OVCAR-3 ovarian
SF-295 CNS = system: SF-295 CNS
UACC-62 melanoma = system: UACC-62 melanoma
UACC-257 melanoma = system: UACC-257 melanoma
786-0 renal = system: 786-0 renal
RPMI-8226 leukemia = system: RPMI-8226 leukemia
RXF-631 renal = system: RXF-631 renal
K-562 leukemia = system: K-562 leukemia
SNB-75 CNS = system: SNB-75 CNS
HOP-62 NSCLC = system: HOP-62 NSCLC
XF 498 CNS = system: XF 498 CNS
U251 CNS = system: U251 CNS
HCT-15 colon = system: HCT-15 colon
DLD-1 colon = system: DLD-1 colon
A498 renal = system: A498 renal
NCI-H522 lung = system: NCI-H522 lung
UO-31 renal = system: UO-31 renal
HCT-116 colon = system: HCT-116 colon
COLO 205 colon = system: COLO 205 colon
HOP-92 NSCLC = system: HOP-92 NSCLC
SNB-19 CNS = system: SNB-19 CNS
M19-MEL melanoma = system: M19-MEL melanoma
DMS 114 small cell lung = system: DMS 114 small cell lung
SK-OV-3 ovarian = system: SK-OV-3 ovarian
KM20L2 colon = system: KM20L2 colon
NCI-H226 lung = system: NCI-H226 lung

Which results are given for `CC12CCCCC1C(=O)C2(Cl)Cl` (stereo not drawn)?
TGI (SK-MEL-2 melanoma): 4.41 µM; TGI (OVCAR-4 ovarian): 12.5 µM; TGI (SNB-78 CNS): 17.9 µM; TGI (EKVX NSCLC): 11 µM; TGI (HCC-2998 colon): 4.22 µM; TGI (SF-268 CNS): 14.6 µM; TGI (LXFL 529 NSCLC): 6 µM; TGI (RXF 393 renal): 14.3 µM; TGI (MOLT-4 leukemia): 5.44 µM; TGI (TK-10 renal): 11.3 µM; TGI (SN12C renal): 12.3 µM; TGI (CCRF-CEM leukemia): 5.45 µM; TGI (KM12 colon): 4.97 µM; TGI (ACHN renal): 5.91 µM; TGI (SK-MEL-5 melanoma): 3.82 µM; TGI (HL-60(TB) leukemia): 3.88 µM; TGI (M14 melanoma): 5.32 µM; TGI (NCI-H23 lung): 8.59 µM; TGI (LOX IMVI melanoma): 6.1 µM; TGI (OVCAR-5 ovarian): 8.96 µM; TGI (OVCAR-8 ovarian): 5.16 µM; TGI (CAKI-1 renal): 10.1 µM; TGI (SF-539 CNS): 5.18 µM; TGI (NCI-H460 lung): 6.37 µM; TGI (DMS 273 small cell lung): 5.4 µM; TGI (A549 NSCLC): 11.2 µM; TGI (MALME-3M melanoma): 4.19 µM; TGI (SW-620 colon): 4.47 µM; TGI (SK-MEL-28 melanoma): 4.18 µM; TGI (HT29 colon): 3.06 µM; TGI (IGROV1 ovarian): 9.95 µM; TGI (OVCAR-3 ovarian): 3.58 µM; TGI (SF-295 CNS): 3.38 µM; TGI (UACC-62 melanoma): 6.09 µM; TGI (UACC-257 melanoma): 5.63 µM; TGI (786-0 renal): 4.73 µM; TGI (RPMI-8226 leukemia): 3.79 µM; TGI (RXF-631 renal): 5 µM; TGI (K-562 leukemia): 4.37 µM; TGI (SNB-75 CNS): 18.3 µM; TGI (HOP-62 NSCLC): 4.92 µM; TGI (XF 498 CNS): 4.19 µM; TGI (U251 CNS): 5.56 µM; TGI (HCT-15 colon): 11.3 µM; TGI (DLD-1 colon): 6.22 µM; TGI (A498 renal): 12.7 µM; TGI (NCI-H522 lung): 4.61 µM; TGI (UO-31 renal): 5.23 µM; TGI (HCT-116 colon): 3.51 µM

What does the source list for `O=C(CC1(O)C(=O)Nc2ccccc21)c1ccc2ccccc2c1` (stereo not drawn)?
TGI (COLO 205 colon): > 100 µM; TGI (SK-MEL-2 melanoma): > 100 µM; TGI (OVCAR-4 ovarian): > 100 µM; TGI (HOP-92 NSCLC): > 100 µM; TGI (SNB-78 CNS): > 100 µM; TGI (EKVX NSCLC): > 100 µM; TGI (HCC-2998 colon): > 100 µM; TGI (SF-268 CNS): > 100 µM; TGI (LXFL 529 NSCLC): > 100 µM; TGI (RXF 393 renal): > 100 µM; TGI (MOLT-4 leukemia): > 100 µM; TGI (TK-10 renal): > 100 µM; TGI (SN12C renal): > 100 µM; TGI (ACHN renal): > 100 µM; TGI (SK-MEL-5 melanoma): > 100 µM; TGI (HL-60(TB) leukemia): > 100 µM; TGI (M14 melanoma): > 100 µM; TGI (NCI-H23 lung): > 100 µM; TGI (LOX IMVI melanoma): > 100 µM; TGI (OVCAR-5 ovarian): > 100 µM; TGI (OVCAR-8 ovarian): > 100 µM; TGI (CAKI-1 renal): > 100 µM; TGI (SF-539 CNS): > 100 µM; TGI (NCI-H460 lung): > 100 µM; TGI (DMS 273 small cell lung): > 100 µM; TGI (A549 NSCLC): > 100 µM; TGI (MALME-3M melanoma): > 100 µM; TGI (SW-620 colon): > 100 µM; TGI (SK-MEL-28 melanoma): > 100 µM; TGI (HT29 colon): > 100 µM; TGI (IGROV1 ovarian): > 100 µM; TGI (OVCAR-3 ovarian): > 100 µM; TGI (SNB-19 CNS): > 100 µM; TGI (M19-MEL melanoma): > 100 µM; TGI (SF-295 CNS): > 100 µM; TGI (DMS 114 small cell lung): > 100 µM; TGI (UACC-62 melanoma): > 100 µM; TGI (SK-OV-3 ovarian): > 100 µM; TGI (UACC-257 melanoma): > 100 µM; TGI (786-0 renal): > 100 µM; TGI (KM20L2 colon): > 100 µM; TGI (RPMI-8226 leukemia): > 100 µM; TGI (RXF-631 renal): > 100 µM; TGI (K-562 leukemia): > 100 µM; TGI (SNB-75 CNS): > 100 µM; TGI (HOP-62 NSCLC): > 100 µM; TGI (XF 498 CNS): > 100 µM; TGI (NCI-H226 lung): > 100 µM; TGI (HCT-15 colon): > 100 µM; TGI (DLD-1 colon): > 100 µM; TGI (A498 renal): > 100 µM; TGI (NCI-H522 lung): > 100 µM; TGI (UO-31 renal): > 100 µM; TGI (HCT-116 colon): > 100 µM
